Experimental data: patent US20080176862A1, “New Compounds 617” (ASTRAZENECA AB, priority 2006, published 2008)
Where a name gives a salt, the structure may show the parent alone.

Molecular target: T1, human β-Secretase (soluble part, AA1-AA460; sBACE-Fc) (Homo sapiens, UniProt P56817)
T1 construct: The soluble part of the human β-Secretase (AA1-AA460) was cloned into the ASP2-Fc10-1-IRES-GFP-neoK mammalian expression vector; made in house
Experiment: TR-FRET assay
Type: biochemical
Conditions: substrate (Europium)CEVNLDAEFK(Qsy7) 100 nM, pH 4.5, 15 min at RT

T1 sequence (P56817 22-460): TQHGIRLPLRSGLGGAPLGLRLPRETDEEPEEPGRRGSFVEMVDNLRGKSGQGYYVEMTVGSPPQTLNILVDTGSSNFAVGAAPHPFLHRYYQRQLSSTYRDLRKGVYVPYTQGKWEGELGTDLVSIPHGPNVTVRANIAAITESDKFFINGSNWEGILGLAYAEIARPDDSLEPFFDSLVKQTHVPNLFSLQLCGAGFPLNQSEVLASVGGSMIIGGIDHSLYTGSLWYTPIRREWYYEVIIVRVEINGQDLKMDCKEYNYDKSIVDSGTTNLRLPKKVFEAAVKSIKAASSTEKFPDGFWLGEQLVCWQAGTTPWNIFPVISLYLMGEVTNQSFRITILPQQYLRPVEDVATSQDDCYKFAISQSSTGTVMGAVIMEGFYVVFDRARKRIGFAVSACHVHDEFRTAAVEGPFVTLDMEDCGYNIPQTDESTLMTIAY

SMILES	IC50 (nM) in TR-FRET assay
COc1cc(OS(C)(=O)=O)cc(-c2cc(C3(c4ccccc4)N=C(N)N(C)C3=O)ccc2F)c1 (stereo not drawn) [Example 84, 5′-(2-Amino-1-methyl-5-oxo-4-phenyl-4,5-dihydro-1H-imidazol-4-yl)-2′-fluoro-5-methoxybiphenyl-3-yl methanesulfonate]	inactive

Same assay, conditions: substrate (Europium)CEVNLDAEFK(Qsy7) 100 nM, pH 4.5, 15 min at RT; read-out: IC50 (nM) in TR-FRET assay

SMILES	IC50
CCC(C)(C)c1ccc(S(=O)(=O)Oc2ccc(C3(c4ccc(F)c(-c5cncnc5)c4)N=C(N)N(C)C3=O)cc2)cc1 (stereo not drawn) [Example 276, 4-[2-Amino-4-(4-fluoro-3-pyrimidin-5-ylphenyl)-1-methyl-5-oxo-4,5-dihydro-1H-imidazol-4-yl]phenyl 4-(1,1-dimethylpropyl)benzenesulfonate]	183 nM
CN1C(=O)C(c2ccc(OS(=O)(=O)c3ccc4c(c3)oc(=O)n4C)cc2)(c2ccc(F)c(-c3cccnc3)c2)N=C1N (stereo not drawn) [Example 284, 4-[2-Amino-4-(4-fluoro-3-pyridin-3-ylphenyl)-1-methyl-5-oxo-4,5-dihydro-1H-imidazol-4-yl]phenyl 3-methyl-2-oxo-2,3-dihydro-1,3-benzoxazole-6-sulfonate 0.5acetate]	60 nM
CN1C(=O)C(c2ccc(OS(C)(=O)=O)cc2)(c2ccc(F)c(-c3cncs3)c2)N=C1N (stereo not drawn) [Example 188, 4-{2-Amino-4-[4-fluoro-3-(1,3-thiazol-5-yl)phenyl]-1-methyl-5-oxo-4,5-dihydro-1H-imidazol-4-yl}phenyl methanesulfonate hydrochloride]	379 nM
CCCS(=O)(=O)Oc1cccc(C2(c3ccc(F)c(-c4cc(Cl)cc(Cl)c4)c3)N=C(N)N(C)C2=O)c1 (stereo not drawn) [Example 100, 3-[2-Amino-4-(3′,5′-dichloro-6-fluorobiphenyl-3-yl)-1-methyl-5-oxo-4,5-dihydro-1H-imidazol-4-yl]phenyl propane-1-sulfonate]	395 nM
Cc1nn(C)c(Cl)c1S(=O)(=O)Oc1ccc(C2(c3ccc(F)c(-c4cccnc4)c3)N=C(N)N(C)C2=O)cc1 (stereo not drawn) [Example 285, 4-[2-Amino-4-(4-fluoro-3-pyridin-3-ylphenyl)-1-methyl-5-oxo-4,5-dihydro-1H-imidazol-4-yl]phenyl 5-chloro-1,3-dimethyl-1H-pyrazole-4-sulfonate 0.25 acetate]	122 nM
COc1cccc(-c2cc(C3(c4cccc(OS(=O)(=O)N(C)C)c4)N=C(N)N(C)C3=O)ccc2F)c1 (stereo not drawn) [Example 112, 3-[2-Amino-4-(6-fluoro-3′-methoxybiphenyl-3-yl)-1-methyl-5-oxo-4,5-dihydro-1H-imidazol-4-yl]phenyl dimethylsulfamate]	150 nM
CC(C)S(=O)(=O)Oc1cccc(C2(c3ccc(F)c(-c4cccnc4)c3)N=C(N)N(C)C2=O)c1 (stereo not drawn) [Example 105, 3-[2-Amino-4-(4-fluoro-3-pyridin-3-ylphenyl)-1-methyl-5-oxo-4,5-dihydro-1H-imidazol-4-yl]phenylpropane-2-sulfonate]	343 nM
CN1C(=O)C(c2cccc(OS(=O)(=O)c3ccc4c(c3)CCC4)c2)(c2ccc(F)c(-c3cccnc3)c2)N=C1N (stereo not drawn) [Example 283, 3-[2-Amino-4-(4-fluoro-3-pyridin-3-ylphenyl)-1-methyl-5-oxo-4,5-dihydro-1H-imidazol-4-yl]phenyl indane-5-sulfonate 0.25 acetate]	30 nM
CN1C(=O)C(c2cccc(OS(=O)(=O)c3ccc4c(c3)CCC4)c2)(c2ccc(F)c(Br)c2)N=C1N (stereo not drawn) [Example 228, 3-[2-Amino-4-(3-bromo-4-fluorophenyl)-1-methyl-5-oxo-4,5-dihydro-1H-imidazol-4-yl]phenyl indane-5-sulfonate]	788 nM
COc1cccc(-c2cc(C3(c4cccc(OS(C)(=O)=O)c4)N=C(N)N(C)C3=O)ccc2F)c1 (stereo not drawn) [Example 93, 3-[2-Amino-4-(6-fluoro-3′-methoxybiphenyl-3-yl)-1-methyl-5-oxo-4,5-dihydro-1H-imidazol-4-yl]phenyl methanesulfonate]	146 nM
CN1C(=O)C(c2ccc(OC(F)F)cc2)(c2ccc(F)c(-c3cncc(OS(C)(=O)=O)c3)c2)N=C1N (stereo not drawn) [Example 73, 5-(5-{2-Amino-4-[4-(difluoromethoxy)phenyl]-1-methyl-5-oxo-4,5-dihydro-1H-imidazol-4-yl}-2-fluorophenyl)pyridin-3-yl methanesulfonate hydrochloride]	54 nM
CN1C(=O)C(c2cccc(OS(C)(=O)=O)c2)(c2cccc(-c3cnccc3Cl)c2)N=C1N (stereo not drawn) [Example 170, 3-{2-Amino-4-[3-(4-chloropyridin-3-yl)phenyl]-1-methyl-5-oxo-4,5-dihydro-1H-imidazol-4-yl}phenyl methanesulfonate hydrochloride]	651 nM
CN1C(=O)C(c2cccc(OS(=O)(=O)c3ccc4c(c3)CCC4)c2)(c2ccc(F)c(-c3cncnc3)c2)N=C1N (stereo not drawn) [Example 239, 3-[2-Amino-4-(4-fluoro-3-pyrimidin-5-ylphenyl)-1-methyl-5-oxo-4,5-dihydro-1H-imidazol-4-yl]phenyl indane-5-sulfonate]	19 nM
COc1cncc(-c2cc(C3(c4ccc(OS(=O)(=O)C(F)(F)F)cc4)N=C(N)N(C)C3=O)ccc2F)c1 (stereo not drawn) [Example 148, 4-{2-Amino-4-[4-fluoro-3-(5-methoxypyridin-3-yl)phenyl]-1-methyl-5-oxo-4,5-dihydro-1H-imidazol-4-yl}phenyl trifluoromethanesulfonate 0.5 acetate]	40 nM
CN1C(=O)C(c2ccc(OS(=O)(=O)C(F)(F)F)cc2)(c2ccc(F)c(-c3cccnc3F)c2)N=C1N (stereo not drawn) [Example 142, 4-{2-Amino-4-[4-fluoro-3-(2-fluoropyridin-3-yl)phenyl]-1-methyl-5-oxo-4,5-dihydro-1H-imidazol-4-yl}phenyl trifluoromethanesulfonate 0.75 acetate]	140 nM
COc1cc(OS(C)(=O)=O)cc(-c2cccc(C3(c4ccc(OC)c(C(F)(F)F)c4)N=C(N)N(C)C3=O)c2)c1 (stereo not drawn) [Example 60, 3′-{2-Amino-4-[4-methoxy-3-(trifluoromethyl)phenyl]-1-methyl-5-oxo-4,5-dihydro-1H-imidazol-4-yl}-5-methoxybiphenyl-3-yl methanesulfonate]	25 nM
CN1C(=O)C(c2cccc(OS(=O)(=O)c3ccc(Cl)s3)c2)(c2ccc(F)c(Br)c2)N=C1N (stereo not drawn) [Example 231, 3-[2-Amino-4-(3-bromo-4-fluorophenyl)-1-methyl-5-oxo-4,5-dihydro-1H-imidazol-4-yl]phenyl 5-chlorothiophene-2-sulfonate]	859 nM
COc1cc(OS(C)(=O)=O)cc(-c2cc(C3(c4ccccc4)N=C(N)N(C)C3=O)ccc2F)c1 (stereo not drawn) [Example 84, 5′-(2-Amino-1-methyl-5-oxo-4-phenyl-4,5-dihydro-1H-imidazol-4-yl)-2′-fluoro-5-methoxybiphenyl-3-yl methanesulfonate]	159 nM
Cc1nn(C)c(Cl)c1S(=O)(=O)Oc1cccc(C2(c3ccc(F)c(Br)c3)N=C(N)N(C)C2=O)c1 (stereo not drawn) [Example 230, 3-[2-Amino-4-(3-bromo-4-fluorophenyl)-1-methyl-5-oxo-4,5-dihydro-1H-imidazol-4-yl]phenyl 5-chloro-1,3-dimethyl-1H-pyrazole-4-sulfonate]	129 nM
CN1C(=O)C(c2ccc(OS(=O)(=O)C(F)(F)F)cc2)(c2ccc(F)c(-c3cncc(C#N)c3)c2)N=C1N (stereo not drawn) [Example 144, 4-{2-Amino-4-[3-(5-cyanopyridin-3-yl)-4-fluorophenyl]-1-methyl-5-oxo-4,5-dihydro-1H-imidazol-4-yl}phenyl trifluoromethanesulfonate 0.5 acetate]	321 nM
CN1C(=O)C(c2cccc(OS(=O)(=O)c3ccc(-n4cccn4)cc3)c2)(c2ccc(F)c(Br)c2)N=C1N (stereo not drawn) [Example 227, 3-[2-Amino-4-(3-bromo-4-fluorophenyl)-1-methyl-5-oxo-4,5-dihydro-1H-imidazol-4-yl]phenyl 4-(1H-pyrazol-1-yl)benzenesulfonate]	1460 nM
COc1cc(OS(C)(=O)=O)cc(-c2cc(C3(C4CCOCC4)N=C(N)N(C)C3=O)ccc2F)c1 (stereo not drawn) [Example 192, 5′-[2-Amino-1-methyl-5-oxo-4-(tetrahydro-2H-pyran-4-yl)-4,5-dihydro-1H-imidazol-4-yl]-2′-fluoro-5-methoxybiphenyl-3-yl methanesulfonate hydrochloride]	1260 nM
CN1C(=O)C(c2ccc(OS(=O)(=O)C(F)(F)F)cc2)(c2ccc(F)c(-c3cncs3)c2)N=C1N (stereo not drawn) [Example 187, 4-{2-Amino-4-[4-fluoro-3-(1,3-thiazol-5-yl)phenyl]-1-methyl-5-oxo-4,5-dihydro-1H-imidazol-4-yl}phenyl trifluoromethanesulfonate hydrochloride]	459 nM
CN1C(=O)C(c2cccc(OS(=O)(=O)N(C)C)c2)(c2ccc(F)c(-c3cccnc3F)c2)N=C1N (stereo not drawn) [Example 110, 3-{2-Amino-4-[4-fluoro-3-(2-fluoropyridin-3-yl)phenyl]-1-methyl-5-oxo-4,5-dihydro-1H-imidazol-4-yl}phenyldimethylsulfamate]	114 nM
CCc1cc(C2(c3ccc(F)c(-c4cc(OC)cc(OS(C)(=O)=O)c4)c3)N=C(N)N(C)C2=O)cc(CC)n1 (stereo not drawn) [Example 209, 5′-[2-Amino-4-(2,6-diethylpyridin-4-yl)-1-methyl-5-oxo-4,5-dihydro-1H-imidazol-4-yl]-2′-fluoro-5-methoxybiphenyl-3-yl methanesulfonate hydrochloride]	99 nM
CN1C(=O)C(c2ccc(OS(C)(=O)=O)cc2)(c2ccc(F)c(/C=C/C3CC3)c2)N=C1N (stereo not drawn) [Example 78, 4-(2-Amino-4-{3-[(E)-2-cyclopropylvinyl]-4-fluorophenyl}-1-methyl-5-oxo-4,5-dihydro-1H-imidazol-4-yl)phenyl methanesulfonate]	725 nM
